The text below walks through data of ChEMBL document CHEMBL3832035, “DailyMed|setid=5c133dfe-3cb5-426b-ac30-daf814e12c47 | FAMCICLOVIR - famciclovir tablet, film coated|Golden State Medical Supply, Inc”.

The structures appear in SMILES notation. Values joined by “and” are separate entries in the source; they are usually repeats but may differ in a detail not shown here. Equal values may be shown once.

The Tmax is the time at which the peak concentration occurs. In general, AUC refers to the area under the concentration-time curve, a measure of exposure. A higher AUC goes with high exposure.

For the data set, the system named is Homo sapiens. As to the kind of experiment: Mean pharmacokinetic parameters for Penciclovir following single dose oral or IV administration of […] to healthy adult subjects and patients with different degrees of renal impairment. Further details: dose 1000 mg, dose 250 mg, dose 125 mg, dose 500 mg, route oral. Particulars: in vivo, regimen Single dose; for Excretion: tissue Urine. Type of data set: ADME, organism-based.

[1] abbreviates: iv, dosed compound id 4, dosed compound name PENCICLOVIR, gender male, tissue Plasma.
Where [2] appears, read: po, dose 500 mg, dosed compound id 40, dosed compound name FAMCICLOVIR, gender male, tissue Plasma.

With `Nc1nc2c(ncn2CCC(CO)CO)c(=O)[nH]1` [PENCICLOVIR], the Excretion reads like this: (iv, 5 mg/kg, dosed compound id 4, dosed compound name PENCICLOVIR, gender male, study dosing duration 24 hours) 91%; (po, at 500 mg, dosed compound id 40, dosed compound name FAMCICLOVIR, gender male, study dosing duration 72 hours) 82%. Also, for the setting “iv, at 400 mg, dosed compound id 4, dosed compound name PENCICLOVIR, gender male, route oral, tissue Plasma”, the F is 77%. The compound further displayed a Vd_beta (iv, dose 400 mg, dosed compound id 4, dosed compound name PENCICLOVIR, gender male, tissue Plasma) of 1.08 L/kg. In addition, the CL under setting [1] stood at 36.6 L/h. The t1/2 was determined as 2 h under setting [1] and 2.3 h under setting [2]. The CL_renal by setting is: (po, dose 500 mg, dosed compound id 40, dosed compound name FAMCICLOVIR, gender female, tissue Plasma) 21.8 L/h; under setting [2], 28.5 L/h and 27.7 L/h. Further, the Tmax under setting [2] came to 0.9 h. Further, the AUC came to 11100 ng·h/mL (po, dosed compound id 40, dosed compound name FAMCICLOVIR, gender female, tissue Plasma) and 9300 ng·h/mL (po, dosed compound id 40, dosed compound name FAMCICLOVIR, gender male, tissue Plasma).
